Results: ChEMBL document CHEMBL5465560, “Selectivity Literature for EUbOPEN Chemogenomic Library” (2024)

How the values were obtained:
[1] = target: T1, MAP kinase-activated protein kinase 5 (Homo sapiens) (UniProt Q8IW41); assay: Selectivity interaction (KinomeScan (DiscoverX)) EUB0001049a MAPKAPK5; conditions: at 1 µM
T1 sequence (whole entry): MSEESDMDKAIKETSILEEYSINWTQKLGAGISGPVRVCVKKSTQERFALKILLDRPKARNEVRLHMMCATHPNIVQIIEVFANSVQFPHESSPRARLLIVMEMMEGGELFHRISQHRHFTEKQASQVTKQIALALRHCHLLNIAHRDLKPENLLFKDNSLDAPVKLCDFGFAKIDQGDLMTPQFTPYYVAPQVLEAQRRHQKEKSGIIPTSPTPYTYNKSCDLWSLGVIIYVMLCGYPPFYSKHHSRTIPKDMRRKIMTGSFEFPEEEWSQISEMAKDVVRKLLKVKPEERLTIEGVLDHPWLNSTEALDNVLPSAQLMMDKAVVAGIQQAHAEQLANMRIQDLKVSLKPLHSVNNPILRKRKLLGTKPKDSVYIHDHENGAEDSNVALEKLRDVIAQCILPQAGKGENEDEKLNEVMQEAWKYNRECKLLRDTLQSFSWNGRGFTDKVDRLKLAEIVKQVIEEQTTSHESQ

[2] = target: T2, Serine/threonine-protein kinase MAK (Homo sapiens) (UniProt P20794); assay: Selectivity interaction (KinomeScan (DiscoverX)) EUB0000666a MAK; conditions: at 10 µM
T2 sequence (whole entry): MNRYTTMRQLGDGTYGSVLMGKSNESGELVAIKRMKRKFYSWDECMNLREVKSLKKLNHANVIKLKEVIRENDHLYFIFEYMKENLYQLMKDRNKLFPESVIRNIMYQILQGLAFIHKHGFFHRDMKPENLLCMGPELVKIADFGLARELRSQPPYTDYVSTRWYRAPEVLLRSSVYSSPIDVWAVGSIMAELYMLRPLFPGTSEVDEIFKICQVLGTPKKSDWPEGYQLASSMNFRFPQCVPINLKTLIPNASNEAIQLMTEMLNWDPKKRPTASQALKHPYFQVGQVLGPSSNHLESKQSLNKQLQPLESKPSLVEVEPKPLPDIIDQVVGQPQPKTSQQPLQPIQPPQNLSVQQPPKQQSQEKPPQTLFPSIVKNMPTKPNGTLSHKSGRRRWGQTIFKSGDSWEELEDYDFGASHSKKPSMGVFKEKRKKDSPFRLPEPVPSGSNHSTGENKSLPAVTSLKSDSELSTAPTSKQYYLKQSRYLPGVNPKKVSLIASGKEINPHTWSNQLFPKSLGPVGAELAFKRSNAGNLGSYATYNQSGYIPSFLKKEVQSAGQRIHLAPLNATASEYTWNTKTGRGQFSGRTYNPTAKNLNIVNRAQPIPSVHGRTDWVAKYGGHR

[3] = target: Kappa-type opioid receptor (Homo sapiens, UniProt P41145); assay: Selectivity interaction (GPCR panel (PDSP screen)) EUB0001079a OPRK1; conditions: at 10 µM
[4] = target: T3, Serine/threonine-protein kinase Sgk3 (Homo sapiens) (UniProt Q96BR1); assay: Selectivity interaction (Kinase panel (KiNativ target engagement assay in Jurkat cells)) EUB0001635a SGK3; type: cell-based; conditions: at 1 µM
T3 sequence (whole entry): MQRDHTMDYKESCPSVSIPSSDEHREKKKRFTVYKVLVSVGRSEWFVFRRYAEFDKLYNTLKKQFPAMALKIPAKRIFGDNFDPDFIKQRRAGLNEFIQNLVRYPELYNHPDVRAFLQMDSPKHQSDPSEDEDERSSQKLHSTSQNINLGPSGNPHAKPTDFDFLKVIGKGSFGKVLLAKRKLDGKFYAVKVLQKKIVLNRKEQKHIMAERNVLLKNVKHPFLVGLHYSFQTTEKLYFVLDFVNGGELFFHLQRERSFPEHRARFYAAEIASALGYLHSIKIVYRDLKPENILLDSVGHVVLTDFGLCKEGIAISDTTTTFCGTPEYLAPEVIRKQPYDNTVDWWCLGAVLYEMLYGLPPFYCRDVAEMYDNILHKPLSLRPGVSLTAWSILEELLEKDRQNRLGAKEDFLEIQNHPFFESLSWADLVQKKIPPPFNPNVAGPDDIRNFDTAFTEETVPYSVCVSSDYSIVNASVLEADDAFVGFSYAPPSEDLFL

[5] = target: Ribosomal protein S6 kinase alpha-2 (Homo sapiens) (UniProt Q15349); assay: Selectivity interaction (ActivX KiNativ screen (kinase selectivity in THP-1 cell lysates)) EUB0000639a RPS6KA2; type: subcellular; conditions: lysate, at 0.01 µM
[6] = system: Mast/stem cell growth factor receptor Kit (Homo sapiens), P10721 [L576P]; conditions: at 10 µM
[7] = target: Interleukin-1 receptor-associated kinase 1 (Homo sapiens) (UniProt P51617); assay: Selectivity interaction (KinomeScan (DiscoverX)) EUB0000655a IRAK1; conditions: at 10 µM
Chain of Interleukin-1 receptor-associated kinase 1 (Homo sapiens) (P51617 whole entry, looked up): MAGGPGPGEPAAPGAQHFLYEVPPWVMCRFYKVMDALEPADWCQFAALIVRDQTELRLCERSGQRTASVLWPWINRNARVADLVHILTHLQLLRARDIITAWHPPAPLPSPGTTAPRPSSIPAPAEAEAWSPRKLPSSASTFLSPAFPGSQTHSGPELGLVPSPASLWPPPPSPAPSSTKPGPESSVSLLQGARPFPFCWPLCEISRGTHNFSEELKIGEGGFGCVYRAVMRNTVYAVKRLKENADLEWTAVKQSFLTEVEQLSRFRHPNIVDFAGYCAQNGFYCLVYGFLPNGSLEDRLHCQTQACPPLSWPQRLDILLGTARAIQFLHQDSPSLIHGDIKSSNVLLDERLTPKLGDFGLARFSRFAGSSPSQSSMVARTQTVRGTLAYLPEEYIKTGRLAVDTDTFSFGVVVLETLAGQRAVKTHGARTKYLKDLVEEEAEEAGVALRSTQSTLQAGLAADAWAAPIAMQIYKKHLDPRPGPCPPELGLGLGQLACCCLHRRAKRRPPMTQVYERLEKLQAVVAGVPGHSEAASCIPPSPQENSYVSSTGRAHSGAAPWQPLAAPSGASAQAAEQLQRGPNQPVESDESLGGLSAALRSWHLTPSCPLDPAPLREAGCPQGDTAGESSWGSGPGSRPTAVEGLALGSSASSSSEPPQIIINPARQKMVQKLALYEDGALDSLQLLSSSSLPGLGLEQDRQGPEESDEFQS

Chain of Kappa-type opioid receptor (P41145 whole entry): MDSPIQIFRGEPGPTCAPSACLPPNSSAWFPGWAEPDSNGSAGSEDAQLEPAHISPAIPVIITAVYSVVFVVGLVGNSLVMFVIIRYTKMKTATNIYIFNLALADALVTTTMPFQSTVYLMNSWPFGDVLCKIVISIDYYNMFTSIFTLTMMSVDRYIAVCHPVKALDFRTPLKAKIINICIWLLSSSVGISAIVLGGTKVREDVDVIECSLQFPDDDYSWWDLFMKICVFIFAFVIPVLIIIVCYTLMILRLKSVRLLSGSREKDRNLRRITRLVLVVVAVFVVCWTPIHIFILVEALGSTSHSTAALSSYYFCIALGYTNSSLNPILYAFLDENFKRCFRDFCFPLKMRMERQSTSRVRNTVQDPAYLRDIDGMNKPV
Chain of Mast/stem cell growth factor receptor Kit (Homo sapiens), P10721 [L576P] (P10721 whole entry L576P): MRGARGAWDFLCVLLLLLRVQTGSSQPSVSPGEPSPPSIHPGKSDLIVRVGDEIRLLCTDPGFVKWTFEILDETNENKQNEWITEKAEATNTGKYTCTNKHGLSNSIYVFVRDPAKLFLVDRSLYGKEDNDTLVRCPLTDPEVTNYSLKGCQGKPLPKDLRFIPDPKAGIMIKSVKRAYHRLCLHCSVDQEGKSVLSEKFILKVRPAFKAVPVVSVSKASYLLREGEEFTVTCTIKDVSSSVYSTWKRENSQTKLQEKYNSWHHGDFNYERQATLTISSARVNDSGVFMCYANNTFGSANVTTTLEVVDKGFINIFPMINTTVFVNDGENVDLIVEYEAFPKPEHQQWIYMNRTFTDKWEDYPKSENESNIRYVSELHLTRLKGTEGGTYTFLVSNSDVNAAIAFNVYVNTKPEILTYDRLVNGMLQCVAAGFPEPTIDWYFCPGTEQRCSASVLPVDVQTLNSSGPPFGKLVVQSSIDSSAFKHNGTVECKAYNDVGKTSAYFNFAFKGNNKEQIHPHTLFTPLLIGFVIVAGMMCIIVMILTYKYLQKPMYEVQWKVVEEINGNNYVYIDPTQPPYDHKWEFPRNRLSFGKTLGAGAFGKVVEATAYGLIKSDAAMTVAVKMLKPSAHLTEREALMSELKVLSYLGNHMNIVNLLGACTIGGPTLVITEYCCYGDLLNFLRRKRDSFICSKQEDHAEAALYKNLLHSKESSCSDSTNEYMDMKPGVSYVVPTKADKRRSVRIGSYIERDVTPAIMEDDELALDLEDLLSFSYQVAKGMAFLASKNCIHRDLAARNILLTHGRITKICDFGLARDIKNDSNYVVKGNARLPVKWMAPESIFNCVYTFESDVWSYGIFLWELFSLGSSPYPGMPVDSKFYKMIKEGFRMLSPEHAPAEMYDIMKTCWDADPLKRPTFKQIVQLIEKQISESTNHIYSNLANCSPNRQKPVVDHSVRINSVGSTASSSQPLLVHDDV
Chain of Ribosomal protein S6 kinase alpha-2 (Homo sapiens) (Q15349 whole entry): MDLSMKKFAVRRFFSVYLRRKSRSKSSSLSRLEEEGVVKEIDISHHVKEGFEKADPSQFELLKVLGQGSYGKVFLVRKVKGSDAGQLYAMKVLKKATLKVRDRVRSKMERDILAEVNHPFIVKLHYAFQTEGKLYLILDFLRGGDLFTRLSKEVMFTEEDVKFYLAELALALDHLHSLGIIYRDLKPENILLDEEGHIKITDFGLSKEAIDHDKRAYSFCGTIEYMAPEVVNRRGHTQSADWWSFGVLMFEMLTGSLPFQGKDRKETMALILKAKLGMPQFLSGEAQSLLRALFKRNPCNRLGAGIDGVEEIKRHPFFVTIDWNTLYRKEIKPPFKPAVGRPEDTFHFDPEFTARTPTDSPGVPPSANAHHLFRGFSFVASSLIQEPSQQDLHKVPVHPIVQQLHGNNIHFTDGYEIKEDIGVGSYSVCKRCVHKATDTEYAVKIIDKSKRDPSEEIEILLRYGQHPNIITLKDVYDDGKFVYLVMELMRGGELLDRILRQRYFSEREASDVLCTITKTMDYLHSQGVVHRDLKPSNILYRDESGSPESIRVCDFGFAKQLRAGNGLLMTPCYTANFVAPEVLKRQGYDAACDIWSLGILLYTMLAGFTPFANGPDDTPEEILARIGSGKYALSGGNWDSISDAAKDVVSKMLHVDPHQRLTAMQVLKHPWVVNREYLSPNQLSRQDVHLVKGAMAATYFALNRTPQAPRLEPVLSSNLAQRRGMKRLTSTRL

With COc1cc(Nc2nc(C)cc(-c3cnn4nc(OC)ccc34)n2)cc(C(F)(F)F)c1 the % of control [1] was 82%.
O=C(NOC[C@H](O)CO)c1ccc(F)c(F)c1Nc1ccc(I)cc1F showed a % of control [2] of 100%.
In the case of Nc1cnc(N2CCc3cc(S(=O)(=O)Nc4c(F)cc(Cl)cc4F)cc(N4CCCC4=O)c32)nc1 [TP-020n], the % of inhibition [3] is reported as 14.9%.
C=CC(=O)Nc1ccc(C(=O)Nc2[nH]nc3c2CN(C(=O)N[C@H](CN(C)C)c2ccccc2)C3(C)C)cc1 gave a % of engagement ([4]; Selectivity number of off-targets 0.0, Selectivity number of targets 233.0, Source Knowledge https://www.sciencedirect.com/science/article/pii/S2451945619300674?via%3Dihub) of 15.8% and a % of engagement [4] of 6.4%.
CC[C@@H]1[C@H](F)C(=O)N[C@@H]1COc1nccc2cc(C(N)=O)c(OC)cc12 [ZIMLOVISERTIB] showed a % of inhibition [5] of -10.4%.
In the case of Cc1cc([C@@H](C)Nc2ccccc2C(=O)O)c2nc(N3CCOCC3)cc(=O)n2c1 [AZD-6482], the % of control [6] is reported as 95%.
CN(C)CCOc1ccc(-c2nc(-c3ccncc3)c(-c3ccc4c(c3)CC/C4=N\O)[nH]2)cc1 gave a % of control [7] of 16%.
